Source: ChEMBL document CHEMBL6177952, “Exploring chloro-isoxazole compounds inspired on tetrahydrofuran neolignans as promising antileishmanial agents” (Eur J Med Chem, 2025)
Active and inactive are the calls of the source. The calls are words filed in the database; no cut-off is given here.

Legend:
[1] = Mutagenicity in Salmonella typhimurium TA102 assessed as number of revertant colonies per plate at 50 microg/ml in presence of S9 fraction by Ames test; assay type: toxicity, subcellular; details: salmonella enterica subsp. enterica serovar typhimurium, dose 50 µg/ml
[2] = Mutagenicity in Salmonella typhimurium TA102 assessed as number of revertant colonies per plate at 150 microg/ml in presence of S9 fraction by Ames test; assay type: toxicity, subcellular; details: salmonella enterica subsp. enterica serovar typhimurium, dose 150 µg/ml
[3] = tested on: Mitochondrial membrane; assay: Induction of mitochondrial membrane potential in Leishmania amazonensis promastigotes at 38.1 uM measured at 72 hrs by flow cytometry analysis; assay type: cell membranes
[4] = Mutagenicity in Salmonella typhimurium TA98 assessed as number of revertant colonies per plate at 500 microg/ml by Ames test; assay type: toxicity; details: salmonella enterica subsp. enterica serovar typhimurium; dose 500 µg/ml
[5] = Mutagenicity in Salmonella typhimurium TA100 assessed as number of revertant colonies per plate at 500 microg/ml by Ames test; assay type: toxicity; details: salmonella enterica subsp. enterica serovar typhimurium; dose 500 µg/ml
[6] = tested on: Leishmania amazonensis; assay: Antileishmanial activity against leishmania amazonensis infected in BALB/c mouse assessed as reduction in parasitism in draining lymph node at 5 mg/kg, ILES measured after 65 days post infection by limiting dilution assay; assay type: functional, organism-based; details: time 65.0 day
[7] = tested on: Leishmania amazonensis; assay: Antileishmanial activity against Leishmania amazonensis promastigotes assessed as late apoptotic parasites at 38.1 uM incubated for 24 hrs by Annexin V/7-AAD staining based flow cytometry analysis relative to control; assay type: functional
[8] = tested on: Leishmania amazonensis; assay: Antileishmanial activity against Leishmania amazonensis promastigotes assessed as viable apoptotic parasites at 38.1 uM incubated for 24 hrs by Annexin V/7-AAD staining based flow cytometry analysis relative to control; assay type: functional
[9] = tested on: Leishmania amazonensis; assay: Potency index, ratio of pentamidine IC50 to test compound IC50 for antileishmanial activity against leishmania amazonensis IFLA/BR/1967/PH8 promastigotes infected in mouse Peritoneal macrophage incubated for 24 hrs; assay type: functional
[10] = Mutagenicity in Salmonella typhimurium TA98 assessed as number of revertant colonies per plate at 150 microg/ml by Ames test; assay type: toxicity; details: salmonella enterica subsp. enterica serovar typhimurium; dose 150 µg/ml
[11] = Mutagenicity in Salmonella typhimurium TA98 assessed as number of revertant colonies per plate at 1500 microg/ml by Ames test; assay type: toxicity; details: salmonella enterica subsp. enterica serovar typhimurium; dose 1500 µg/ml
[12] = Mutagenicity in Salmonella typhimurium TA102 assessed as number of revertant colonies per plate at 500 microg/ml by Ames test; assay type: toxicity; details: salmonella enterica subsp. enterica serovar typhimurium; dose 500 µg/ml

Q: What does the source list for `COc1cc(-c2cc(-c3ccc4c(c3)OCO4)on2)c(Cl)c(OC)c1OC`?
A: Activity [1]: 204 revertants/plate; Activity [2]: 187 revertants/plate; Activity [3]: Active; revertant count [4]: 23.3 revertants/plate; revertant count [5]: 123 revertants/plate; Activity [6]: Active; Activity [7]: 0.4%; Activity [8]: 95.5%; Ratio IC50 [9]: 29; revertant count [10]: 9.7 revertants/plate; revertant count [11]: 32.7 revertants/plate; revertant count [12]: 161 revertants/plate
